SMILES strings stand for the structures.

The nature of this series: Phase II clinical trial NCT01393730: serum Abi metabolites before and after dutasteride. In kind it is in vivo, human. As to conditions: for mean serum concentration, cycle 3: Abi acetate 1000 mg daily plus prednisone alone; for mean serum concentration, cycle 3 / mean serum concentration, cycle 4: 16 patients; for mean serum concentration, cycle 4: after addition of dutasteride 3.5 mg once daily. The method, then:
Twelve patients with CRPC undergoing treatment with Abi acetate at Cleveland Clinic were consented under an Institutional Review Board—approved protocol (Case 7813). Blood was collected using Vacutainer Plus serum blood collection tubes (#BD367814, Becton Dickenson, Franklin Lakes, N.J.), between 1 and 16 hours after the 1000 mg daily dose of Abi acetate was administered, and allowed to clot. Tubes were centrifuged at 2500 RPM or 1430×g for 10 minutes. Serum aliquots were frozen at −80° C. until processing. To study the effect of dutasteride on Abi metabolism, serum samples were collected from patients treated on a phase II clinical trial at Dana-Farber Cancer Institute (NCT01393730). Each patient received Abi acetate (1,000 mg daily) plus prednisone (5 mg daily) for 2 cycles (8 weeks) and then additional treatment with dutasteride ([…]) was initiated. Samples were collected on treatment with Abi alone and after addition of dutasteride (start of cycles 3, 4 and 7). Seventeen patients treated at this institution on this clinical trial had blood available from all 3 time points. One patient had Abi concentrations that were under the limit of detection and was later determine to have stopped treatment because of adverse effects and was therefore not included in the analysis. Drug metabolites and internal standard (d4-abiraterone, Toronto Research Chemicals Inc, Ontario Canada) were extracted from 100 μL of patient serum with methyl tert-butyl ether (Sigma Aldrich, St. Louis, Mo.), evaporated under a stream of nitrogen gas and reconstituted in methanol:water (50:50) prior to mass spectrometry analysis. Standard curves were generated using human serum spiked with known concentrations of each metabolite to enable determination of unknown concentrations in patient samples
Samples were analyzed on a ultra high-performance liquid chromatography station (Shimadzu, Kyoto, Japan) with a DGU-20A3R degasser, 2 LC-30AD pumps, a SIL-30AC autosampler, a CTO-10A column oven and a CBM-20A system controller in tandem with a QTRAP 5500 mass spectrometer (AB Sciex, Framingham, Mass.). Drug metabolites were ionized using electrospray ionization in positive ion mode. Multiple reaction monitoring was used to follow mass transitions for Abi, IS, and the metabolites (Table 1). Due to the similarity in structure and mass transitions for the metabolites it was necessary to separate them with chromatography. Separation of drug metabolites was achieved using a mobile phase consisting of LC-MS grade (Fisher) methanol: acetonitrile: water:formic acid (39:26:34:1) at a flow rate of 0.2 ml/min., and C18 analytical column; Zorbax Eclipse plus 150×2.1 mm, 3.5 μm (Agilent, Santa Clara, Calif.).

Turning to `C[C@]12CC[C@@H](O)C[C@@H]1CC[C@@H]1[C@@H]2CC[C@]2(C)C(c3cccnc3)=CC[C@@H]12` [Compound 3α-OH-5α-Abi, 17-(3-pyridyl)-5α-androsta-16-ene-3α-ol], the “decline in mean serum concentration after the addition of dutasteride” value (cycle 3 vs. cycle 4) stood at 92%.

`C[C@]12CCC(=O)C[C@@H]1CC[C@@H]1[C@@H]2CC[C@]2(C)C(c3cccnc3)=CC[C@@H]12` [Compound 5α-Abi, 17-(3-pyridyl)-5α-androsta-16-ene-3-one]: the “mean serum concentration, cycle 3” value worked out at 25.8 nM and the “mean serum concentration, cycle 4” value is on record as 2.9 nM. For `C[C@]12CCC(=O)C=C1CC[C@@H]1[C@@H]2CC[C@]2(C)C(c3cccnc3)=CC[C@@H]12` [Compound D4A, 17-(3-Pyridyl)androsta-4,16-dien-3-one] the same measures were 9.9 nM and 18.2 nM.

Source of the values: patent US10265329B2, “Altering steroid metabolism for treatment of steroid-dependent disease” (THE CLEVELAND CLINIC FOUNDATION, priority 2015, dated 2019).
